Test results published in ChEMBL document CHEMBL2073892, “Substitution of Trp1242 of TM17 alters substrate specificity of human multidrug resistance protein 3” (Am J Physiol Gastrointest Liver Physiol, 2003).

Target: Multidrug resistance associated protein (Homo sapiens) (UniProt Q96QA9)
Test: TP_TRANSPORTER: uptake in membrane vesicles from HEK293T cells
Assay type: functional, cell membranes
Conditions: HEK293; Membrane vesicle

Chain of Multidrug resistance associated protein (Homo sapiens) (Q96QA9 as listed by the source): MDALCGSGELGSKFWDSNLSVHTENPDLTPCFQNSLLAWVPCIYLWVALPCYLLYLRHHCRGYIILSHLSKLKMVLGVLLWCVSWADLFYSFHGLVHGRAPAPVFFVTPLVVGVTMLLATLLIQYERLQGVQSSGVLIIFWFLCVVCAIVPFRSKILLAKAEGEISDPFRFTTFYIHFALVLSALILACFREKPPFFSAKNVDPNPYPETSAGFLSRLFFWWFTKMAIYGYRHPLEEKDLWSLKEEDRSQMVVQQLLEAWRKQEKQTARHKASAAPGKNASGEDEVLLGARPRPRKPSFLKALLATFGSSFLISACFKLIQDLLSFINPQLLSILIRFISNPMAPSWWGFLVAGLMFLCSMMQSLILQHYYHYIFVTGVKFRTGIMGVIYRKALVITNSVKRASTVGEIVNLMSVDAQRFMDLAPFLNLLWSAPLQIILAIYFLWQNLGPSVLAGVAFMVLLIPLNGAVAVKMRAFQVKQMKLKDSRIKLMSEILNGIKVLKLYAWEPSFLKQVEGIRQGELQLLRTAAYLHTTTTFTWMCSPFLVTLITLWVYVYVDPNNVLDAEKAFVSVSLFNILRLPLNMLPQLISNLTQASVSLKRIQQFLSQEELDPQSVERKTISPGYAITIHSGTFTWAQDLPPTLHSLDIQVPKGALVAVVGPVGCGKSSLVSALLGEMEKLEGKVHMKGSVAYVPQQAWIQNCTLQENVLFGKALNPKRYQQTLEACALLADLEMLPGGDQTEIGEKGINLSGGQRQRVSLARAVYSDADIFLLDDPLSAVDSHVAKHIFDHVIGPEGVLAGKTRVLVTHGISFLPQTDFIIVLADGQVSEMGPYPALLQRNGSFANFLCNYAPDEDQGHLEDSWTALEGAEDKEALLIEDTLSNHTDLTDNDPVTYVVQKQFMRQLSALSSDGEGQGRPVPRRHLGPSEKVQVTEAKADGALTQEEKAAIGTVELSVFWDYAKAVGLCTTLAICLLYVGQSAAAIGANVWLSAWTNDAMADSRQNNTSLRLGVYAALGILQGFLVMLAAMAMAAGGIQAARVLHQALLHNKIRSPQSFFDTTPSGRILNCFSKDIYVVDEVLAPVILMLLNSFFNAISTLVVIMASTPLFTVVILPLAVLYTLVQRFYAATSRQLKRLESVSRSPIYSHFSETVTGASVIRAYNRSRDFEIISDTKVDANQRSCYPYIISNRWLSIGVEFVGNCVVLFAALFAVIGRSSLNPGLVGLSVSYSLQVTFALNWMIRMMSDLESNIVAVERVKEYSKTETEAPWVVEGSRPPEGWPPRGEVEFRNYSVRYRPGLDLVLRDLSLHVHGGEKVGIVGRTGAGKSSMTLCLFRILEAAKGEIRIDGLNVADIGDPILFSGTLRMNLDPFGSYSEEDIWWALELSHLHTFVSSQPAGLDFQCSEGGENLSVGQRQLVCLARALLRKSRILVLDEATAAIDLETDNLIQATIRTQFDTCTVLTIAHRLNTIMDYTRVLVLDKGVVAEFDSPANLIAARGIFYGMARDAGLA

| SMILES | Activity |
| --- | --- |
| CN(Cc1cnc2nc(N)nc(N)c2n1)c1ccc(C(=O)N[C@@H](CCC(=O)O)C(=O)O)cc1 | substrate [+] |
| CCCCC/C=C\C\C=C/C=C/C=C/[C@@H](SC[C@@H](NC(=O)CC[C@H](N)C(=O)O)C(=O)NCC(=O)O)[C@@H](O)CCCC(=O)O | substrate [+] |
